Data as given in patent publication US20250206719A1, “ALBICIDIN DERIVATIVES, THEIR USE AND SYNTHESIS” (TECHNISCHE UNIVERSITÄT BERLIN, priority 2022, published 2025).
Values after ≈ are worked out from the molar mass of the structure shown. Like-named read-outs stand apart in the source and are kept apart here.

Key:
E. coli BW25113 [1] = assay: MIC determination (medium: MHBII/human serum (1:1)); type: cell-based; settings: Escherichia coli
Procedure: The test was carried out for bacterial strain, E. coli BW25113 (Gram-negative).
First, 20 μl of glycerol stock of the strain was inoculated in 20 mL LB followed by incubation overnight at 37° C., 200 r.p.m.
The serum was subjected to a heat shock (56° C./30 min in a water bath) before use.
The test inoculum was adjusted by the 0.5 McFarland Standard, so that each well contained approximately 5×10^5 c.f.u. mL^−1 in a final volume of 100 μL. For the adjustment of the test inoculum, MHBII medium and the human serum were used in a mixing ratio of 1:1.
For dilutions, the dry powders were dissolved in DMSO with a concentration of 2.56 mg mL-1 and serially diluted in DMSO (100%). Initial solution and serial dilutions of Ciprofloxacin were prepared in 0.1 N HCl.
Then, 95 μL of the adjusted inoculum was applied per well and 5 μl of each antibiotic dilution was applied to the microdilution tray to reach final concentrations of 8 to 0.016 μg ml^−1.
The antimicrobial effect of the solvent (DMSO or 0.1 N HCL) was tested by adding 5 μL DMSO or 0.1 N HCL to several wells.
One row of each well plate served as a growth control without antibiotic substances, and another row of the microdilution tray served as sterility control (MHB II-media).

S. typhimurium TA100 = assay: MIC microdilution assay, S. typhimurium TA100; type: cell-based; settings: Salmonella enterica, 20 h, read-out: MIC S. typhimurium TA100
Procedure: (§1) The tests were performed using the micro dilution method.
(§2) The determination of MIC values was performed according to the ninth edition of the Approved Standard M07-A9 (CLSI. Methods for Dilution Antimicrobial Susceptibility Tests for Bacteria That Grow Aerobically; Approved Standard-Ninth Edition. CLSI document M07-A9. Wayne, PA: Clinical and Laboratory Standards Institute; 2012.)
(§3) The test was carried out for different bacterial strains (E. coli DSM 1116, E. coli BW25113 [gram negative], B. subtilis DSM 10 [gram positive], M. luteus DSM 1790 [gram positive], S. typhimurium TA100 [gram negative]) and M. phlei DSM 750. 20 μL of cryo stock of each strain were inoculated in 20 mL of LB media (Lysogeny broth: 10 g/L peptone, 5 g/L yeast extract, 5 g/L NaCl) followed by incubation over night at 37° C., 200 rpm. The test inoculum was adjusted by the 0.5 McFarland Standard (OD625 from 0.08 to 0.1). Within 15 min of preparation, the adjusted inoculum suspension was diluted in MHBII media (BBL TM Mueller-Hinton Broth II, Becton, Dickinson and Company, New Jersey/USA) so that each well contained approximately 5×10^5 CFU/mL in a final volume of 100 μL. 95 μL of the inoculum were applied per well and 5 μL of the (diluted) antibiotic substance were added.
(§4) Previously the dry antibiotic compounds were dissolved in DMSO (100%) with a concentration of 2560 μg/mL and the resulting stock solutions were further diluted in DMSO (100%). 5 μL of each antibiotic dilution were applied to the microdilution tray to reach final concentrations of 64 μg/mL to 0.008 μg/mL. One row of each well plate was left as a growth control without antibiotic substances and another row of the microdilution tray was used as sterility control (only MHB II-media). The antimicrobial effect of the solvent (DMSO) was tested by adding 5 μL DMSO to several wells without antibiotics. Purity check and cell titer control were performed according to International Standard M07-A9 on Mueller-Hinton II Agar (Mueller Hinton II Broth, 15 g/L agar-agar). Both microdilution trays and agar plates were incubated at 37° C. for 20 h and subsequently analyzed visually.

E. coli DSM 1116 = assay: MIC microdilution assay, E. coli DSM 1116; type: cell-based; settings: Escherichia coli, read-out: MIC E. coli DSM1116
Procedure: as §1, §2, §3, §4

Bacillus subtilis DSM10 = assay: MIC microdilution assay, B. subtilis DSM 10; type: cell-based; settings: read-out: MIC B. subtilis DSM10
Procedure: as §1, §2, §3, §4

E. coli BW25113 [2] = assay: MIC microdilution assay, E. coli BW25113; type: cell-based; settings: Escherichia coli, read-out: MIC E. coli BW25113
Procedure: as §1, §2, §3, §4

[3] = test system: Micrococcus luteus DSM1790; assay: MIC microdilution assay, M. luteus DSM 1790; type: cell-based; settings: read-out: MIC M. luteus DSM 1790
Procedure: as §1, §2, §3, §4

M. phlei DSM 750 = assay: MIC microdilution assay, M. phlei DSM 750; type: cell-based, Mycobacterium phlei; settings: Mycolicibacterium phlei, read-out: MIC M. phlei DSM 750
Procedure: as §1, §2, §3, §4

[4] = E. coli BW25113, MHBII/human serum 1:1, test range 8 to 0.016 μg/ml, read-out: MIC E. coli + 50% human serum
[5] = MHBII medium, 37° C., test range 64 to 0.008 μg/mL
[6] = DSM1116, MHBII medium, 37° C., 20 h, test range 64 to 0.008 μg/mL
[7] = DSM10, MHBII medium, 37° C., 20 h, test range 64 to 0.008 μg/mL
[8] = BW25113, MHBII medium, 37° C., 20 h, test range 64 to 0.008 μg/mL
[9] = DSM1790, MHBII medium, 37° C., 20 h, test range 64 to 0.008 μg/mL
[10] = DSM750, MHBII medium, 37° C., 20 h, test range 64 to 0.008 μg/mL

| Structure (SMILES) | MIC (E. coli BW25113 [1]; [4]) | MIC (S. typhimurium TA100; [5]) | MIC (E. coli DSM 1116; [6]) | MIC (Bacillus subtilis DSM10; [7]) | MIC (E. coli BW25113 [2]; [8]) | MIC [3, 9] | MIC (M. phlei DSM 750; [10]) | other results |
| --- | --- | --- | --- | --- | --- | --- | --- | --- |
| COc1c(NC(=O)c2ccc(NC(=O)c3ccc(NC(=O)[C@H](Cc4c[nH]nn4)NC(=O)c4ccc(NC(=O)c5cnc6ccccc6c5)cc4)cn3)c(OC)c2O)ccc(C(=O)O)c1O [Compound 3] | 2 µg/mL | ≤ 0.016 µg/mL |  |  |  |  |  |  |
| COc1c(NC(=O)c2ccc(NC(=O)c3ccc(NC(=O)[C@H](Cc4c[nH]nn4)NC(=O)c4ccc(NC(=O)c5ccc6nccnc6c5)cc4)cn3)c(OC)c2O)ccc(C(=O)O)c1O [Compound 7] | 1 µg/mL | ≤ 0.016 µg/mL |  |  |  |  |  |  |
| COc1c(NC(=O)c2ccc(NC(=O)c3ccc(NC(=O)[C@H](Cc4c[nH]nn4)NC(=O)c4ccc(NC(=O)c5ccc6nc(C)ccc6c5)cc4)cn3)c(OC)c2O)ccc(C(=O)O)c1O [Compound 1] | 0.5 µg/mL | ≤ 0.016 µg/mL | 0.016 µg/mL (≈ 0.0179 µM) | 0.063 µg/mL (≈ 0.0704 µM) | 0.016 µg/mL (≈ 0.0179 µM) | 0.063 µg/mL (≈ 0.0704 µM) | 0.5 µg/mL (≈ 0.559 µM) |  |
| COc1c(NC(=O)c2ccc(NC(=O)c3ccc(NC(=O)[C@H](Cc4c[nH]nn4)NC(=O)c4ccc(NC(=O)c5cc6cc(O)ccc6[nH]5)cc4)cn3)c(OC)c2O)ccc(C(=O)O)c1O (stereo in doubt) [Compound 14] | ≥ 8 µg/mL | 0.125 µg/mL (≈ 0.141 µM) |  |  | 0.125 µg/mL (≈ 0.141 µM) |  |  |  |
| CCn1cc(C(=O)Nc2ccc(C(=O)N[C@@H](Cc3c[nH]nn3)C(=O)Nc3ccc(C(=O)Nc4ccc(C(=O)Nc5ccc(C(=O)O)c(O)c5OC)c(O)c4OC)nc3)cc2)c(=O)c2cc3c(cc21)OCO3 [Compound 6] | 0.5 µg/mL | ≤ 0.016 µg/mL |  |  |  |  |  |  |
| COc1c(NC(=O)c2ccc(NC(=O)c3ccc(NC(=O)[C@H](Cc4c[nH]nn4)NC(=O)c4ccc(NC(=O)c5c[nH]c6ccccc6c5=O)cc4)cn3)c(OC)c2O)ccc(C(=O)O)c1O [Compound 4] | 2 µg/mL | ≤ 0.016 µg/mL |  |  |  |  |  |  |
| COc1c(NC(=O)c2ccc(NC(=O)c3ccc(NC(=O)[C@H](Cc4c[nH]nn4)NC(=O)c4ccc(NC(=O)c5ccc6ncccc6c5)cc4)cn3)c(OC)c2O)ccc(C(=O)O)c1O (stereo in doubt) [Compound 2] | 4 µg/mL | ≤ 0.016 µg/mL |  |  |  |  |  |  |
| COc1c(NC(=O)c2ccc(NC(=O)c3ccc(NC(=O)C(Cc4c[nH]nn4)NC(=O)c4ccc(NC(=O)c5ccc6nc[nH]c6c5)cc4)cn3)c(OC)c2O)ccc(C(=O)O)c1O (stereo not drawn) [Compound 9] | ≥ 8 µg/mL | 0.125 µg/mL (≈ 0.144 µM) | 0.125 µg/mL (≈ 0.144 µM) | 2 µg/mL (≈ 2.3 µM) | 0.125 µg/mL (≈ 0.144 µM) | 2 µg/mL (≈ 2.3 µM) | 8 µg/mL (≈ 9.2 µM) |  |
| COc1c(NC(=O)c2ccc(NC(=O)c3ccc(NC(=O)C(Cc4c[nH]nn4)NC(=O)c4ccc(NC(=O)c5ccc6ncsc6c5)cc4)cn3)c(OC)c2O)ccc(C(=O)O)c1O (stereo not drawn) [Compound 8] | 0.5 µg/mL | ≤ 0.016 µg/mL | ≤ 0.016 µg/mL |  | ≤ 0.016 µg/mL |  | 2 µg/mL (≈ 2.26 µM) |  |
| COc1c(NC(=O)c2ccc(NC(=O)c3ccc(NC(=O)C(Cc4c[nH]nn4)NC(=O)c4ccc(NC(=O)c5ccc6nn[nH]c6c5)cc4)cn3)c(OC)c2O)ccc(C(=O)O)c1O (stereo not drawn) [Compound 16] | 8 µg/mL | 0.125 µg/mL (≈ 0.144 µM) | 0.063 µg/mL (≈ 0.0723 µM) | 0.5 to 1 µg/mL (≈ 0.574 to 1.15 µM) | 0.031 µg/mL (≈ 0.0356 µM) | 1 µg/mL (≈ 1.15 µM) | 4 to 8 µg/mL (≈ 4.59 to 9.19 µM) |  |
| COc1c(NC(=O)c2ccc(NC(=O)c3ccc(NC(=O)C(Cc4c[nH]nn4)NC(=O)c4ccc(NC(=O)/C(C)=C/c5ccc(O)cc5)cc4)cn3)c(OC)c2O)ccc(C(=O)O)c1O (stereo not drawn) [3^RD GEN Alb i, reference compound] | 0.5 µg/mL | 0.016 µg/mL (≈ 0.0181 µM) | 0.016 µg/mL (≈ 0.0181 µM) | 0.031 µg/mL (≈ 0.035 µM) | 0.016 µg/mL (≈ 0.0181 µM) | 0.031 µg/mL (≈ 0.035 µM) | 0.25 µg/mL (≈ 0.282 µM) |  |
| COc1c(NC(=O)c2ccc(NC(=O)c3ccc(NC(=O)[C@H](Cc4c[nH]nn4)NC(=O)c4ccc(NC(=O)c5cc6ccccc6cn5)cc4)cn3)c(OC)c2O)ccc(C(=O)O)c1O (stereo in doubt) [Compound 10] |  |  |  |  |  |  |  | MIC (E. coli BW25113 [1]; BW25113, read-out: MIC E. coli + 50% human serum): 1 µg/mL; MIC (E. coli DSM 1116; DSM1116, 20 h): ≤ 0.016 µg/mL; MIC (S. typhimurium TA100): ≤ 0.016 µg/mL; MIC (Bacillus subtilis DSM10; DSM10, 20 h): 0.063 µg/mL (≈ 0.0715 µM); MIC (E. coli BW25113 [2]; BW25113, 20 h): ≤ 0.016 µg/mL; MIC ([3]; DSM1790, 20 h): 0.063 µg/mL (≈ 0.0715 µM); MIC (M. phlei DSM 750; DSM750, 20 h): 1 µg/mL (≈ 1.14 µM) |
| COc1c(NC(=O)c2ccc(NC(=O)c3ccc(NC(=O)C(Cc4c[nH]nn4)NC(=O)c4ccc(NCc5ccc6ncccc6c5)cc4)cn3)c(OC)c2O)ccc(C(=O)O)c1O (stereo not drawn) [Compound 15] | 4 to 8 µg/mL | 0.031 µg/mL (≈ 0.0358 µM) | 0.063 µg/mL (≈ 0.0727 µM) | 0.25 to 0.5 µg/mL (≈ 0.288 to 0.577 µM) | 0.031 µg/mL (≈ 0.0358 µM) | 0.125 µg/mL (≈ 0.144 µM) | 2 µg/mL (≈ 2.31 µM) |  |
| COc1c(NC(=O)c2ccc(NC(=O)c3ccc(NC(=O)[C@H](Cc4c[nH]nn4)NC(=O)c4ccc(NC(=O)c5cc(=O)c6cc(F)ccc6o5)cc4)cn3)c(OC)c2O)ccc(C(=O)O)c1O (stereo in doubt) [Compound 12] | 8 µg/mL | ≤ 0.016 µg/mL |  |  |  |  |  |  |
| COc1c(NC(=O)c2ccc(NC(=O)c3ccc(NC(=O)[C@H](Cc4c[nH]nn4)NC(=O)c4ccc(NC(=O)c5ccc6ccccc6n5)cc4)cn3)c(OC)c2O)ccc(C(=O)O)c1O (stereo in doubt) [Compound 13] | 2 µg/mL | ≤ 0.016 µg/mL |  |  |  |  |  |  |
| CCn1cc(C(=O)Nc2ccc(C(=O)N[C@@H](Cc3c[nH]nn3)C(=O)Nc3ccc(C(=O)Nc4ccc(C(=O)Nc5ccc(C(=O)O)c(O)c5OC)c(O)c4OC)nc3)cc2)c(=O)c2ccc(C)nc21 [Compound 11] | 8 µg/mL | ≤ 0.016 µg/mL |  |  |  |  |  |  |
